Tests used:
Format in all cases: cell-based, human
[1] = system: plasminogen; assay: Plasminogen level in hESC conditioned media by ELISA; conditions: heparin 100 ug/mL; control siRNA, ANXA2 siRNA, non-PE and sPE decidualized hESCs (all conditions)
Procedure: Plasminogen level was evaluated in conditioned media by ELISA kit (Cell Biolabs, CA, USA) following manufacturer's instructions. Average absorbance (Δ450 nm) in duplicate wells was calculated by subtracting the background from wells with media without hESC.
(§1) hESCs were cultured on monolayer in presence of 50 μg/mL and 100 μg/mL of heparin (Sigma, Madrid, during 15, 30 and 60 min to elaborate a dose-response experiment. Conditioned media from hESC cells were collected to analyze plasminogen levels, plasmin activity and metalloproteases production.

[2] = system: plasmin; assay: Plasmin activity in hESC conditioned media, fluorimetric assay; conditions: heparin 100 ug/mL
Procedure: Plasmin activity was measured in conditioned media by fluorimetric assay kit (Anaspec, CA, USA). It is based in a protease cleavage to plasmin substrate that generates a rhodamine 110 fluorophore which has a bright green fluorescence detected at 496 nm/520 nm (excitation/emission). Fifty microlitres of conditioned media was pre-incubated 10 min at room temperature and 50 uL of plasmin substrate solution was added into each well. Fluorescence signal was obtain for kinetic reading immediately start measuring and record data every 5 min for 60 min, with a total of 13 lectures. Each condition was evaluated in duplicate. The fluorescence was Interpol to concentration values using an Rh110 fluorescence reference standard.
as §1

[3] = system: MMP2; assay: MMP2 level in hESC conditioned media by ELISA; conditions: heparin treatment, all hESC conditions
Procedure: (§2) MMP2 and MMP9 pro and active protein forms were evaluated by commercial ELISA analysis (RayBiotech, GA, USA). These assays employ an antibody specific for humans MMP-2 and MMP-9 coated on a 96-well plate. Standards and samples are pipette by duplicated into the wells and MMP-2 and MMP-9 present in a sample is bound to the wells by the immobilized antibody. Biotinylated anti-human MMP-2 and MMP-9 and HRP-conjugated streptavidin were added. TMB substrate solutions were added and absorbance at 450 nm was extrapolated to standard curve.
as §1

[4] = system: MMP9; assay: MMP9 level in hESC conditioned media by ELISA; conditions: heparin treatment, all hESC conditions
Procedure: as §2, §1

[5] = system: ANXA2; assay: Secreted extracellular ANXA2 in hESC conditioned media by ELISA; conditions: heparin treatment; control, ANXA2 siRNA and sPE hESCs
Procedure: Protein extracts (2 μg/well) and conditioned media were analyzed by ELISA (R&D Systems, MN, USA). Inmobilized capture antibody specifically binds Annexin A2. After washing away un-bounded material, a biotinylated detection antibody specific for Annexin A2 is used to detect the bound Annexin A2, using a standard Streptavidin-HRP format. Three replicates were performed for each condition and the absorbance values were extrapolated to standard curve to establish human Annexin A2 concentration (pg/mL).
as §1

## heparin
[1]
  Plasminogen secretion into the conditioned media: significantly increased
[2]; ANXA2 siRNA hESCs and hESCs from sPE
  Plasmin activity: significant increase
[2]; control siRNA, ANXA2 siRNA, non-PE and sPE decidualized hESCs (all conditions)
  Plasmin activity in conditioned media: significantly increased
[3]
  MMP2 production: significant increase
[4]
  MMP9 production: significant increase
[5]
  ANXA2 protein secreted to the culture media: significant increase
